# According to patent US11413280B2 (The Board of Trustees of the Leland Stanford Junior …, priority 2017, dated 2022):
# Columns and labels:
# [1] = tested on: miR17-5; assay: Relative miR17-5 expression in PAECs (qPCR); format: cell-based, human; settings: 15 μM Enzastaurin 24 hours
# [2] = tested on: PKC; assay: PKC and p-PKC protein expression in lung tissue of SuHx rats (immunoblot); format: in vivo, rat; settings: whole lung tissue, 5 mg/kg daily oral gavage
# Experimental: Experimental PAH was induced in male Sasco Sprague Dawley rats by subcutaneous injection of 20 mg/kg body weight SU5416.
# [3] = tested on: PAEC; assay: MTT proliferation assay in PAEC; format: cell-based, human; settings: Enzastaurin 0.5-50 M as printed
# Experimental: (§1) Assays were conducted according to the manufacturer's instructions and as previously described(E1,E9).
# Quantified area=% of cells that show nuclear γH2AX staining quantified with automated software (white nuclei=positive stain, grey nuclei=background stain). […] (n=3). […] (n=3).
# (§2) As a cumulative viability measurement, we quantified caspase3/7 activity, using the luminescent Caspase-Glo®3/7 assay(36) and DNA damage, using histone H2AX phosphorylation by immunofluorescence and quantification as nuclear area staining (%) by confocal microscopy(34, 35, 37). […] PAEC proliferation was assessed via an MTT proliferation assay and hemocytometer cell counts(36).
# [4] = tested on: miR27a; assay: Relative miR27a expression in PAECs (qPCR); format: cell-based, human; settings: 15 μM Enzastaurin 24 hours
# [5] = tested on: PASMC; assay: MTT proliferation assay in PASMC; format: cell-based, human; settings: siFHIT PASMC, Enzastaurin 5 M as printed
# [6] = tested on: hypoxia-induced experimental PAH in C57BL/6 and BMPR2+/− C57BL/6 mice; assay: Hypoxia-induced experimental PAH in wildtype and Bmpr2+/− mice; format: in vivo, mouse
# Experimental: Right Ventricular (RV) Systolic Pressure was measured through right jugular vein catheterization and RV hypertrophy was assessed by the weight ratio of the RV to left ventricle+septum. Vessel loss and muscularization of lung vessels were visualized by MOVAT pentachrome stain. […] Arrows indicate vessel position. FIG. 3F, Representative MOVAT lung histology depicting vessel structure. Arrows indicate vessel position.
# (§3) Fhit homozygous (−/−) mice were obtained from Kay F. Huebner (Ohio State University). Bmpr2+/− mice were a gift from Marlene Rabinovitch (Stanford University). Adult wildtype C57BL/6 mice, Bmpr2+/− or Fhit−/− mice at 8-10 weeks of age were housed in chronic hypoxia (10% O2) for 3 weeks, followed by a recovery period of 4 weeks in normoxia (21% O2). […] Development of experimental PH was induced in adult Sprague Dawley rats (8 weeks old, 180-220 g) through a subcutaneous dose of the VEGFR-2 inhibitor SUGEN5416 (20 mg/kg body weight), followed by exposure to chronic hypoxia (10% O2) for 3 weeks and normoxia for 5 weeks (21% O2), as previously described(12). […] Right Ventricular (RV) Systolic Pressure was measured through right jugular vein catheterization, and RV hypertrophy (RVH) was assessed by the weight ratio of the RV to left ventricle and septum (LV+S).
# FIG. 24E, Representative MOVAT lung histology. Arrows indicate vessel position. FIGS. 24F-24G, Representative MOVAT lung histology of large (FIG. 24F) and small vessels (FIG. 24G) respectively. Arrows indicate vessel position.
# [7] = tested on: PAEC; assay: Matrigel tube formation assay; format: cell-based, human; settings: FHIT- and BMPR2-deficient PAECs, 15 μM Enzastaurin for 24 hours
# Experimental: as §1
# (§4) Quantified area=% of cells that show nuclear γH2AX staining quantified with automated software (white nuclei=positive stain, grey nuclei=background stain). […] FIGS. 9G-9H, MTT proliferation assay in Enzastaurin-treated (0.5-50 M) in PASMC and PAEC, respectively. (n=3). FIGS. 9I-9J, MTT proliferation assay in Enzastaurin-treated (5 M) siFHIT and siBMPR2 transfected PASMC compared to Ntsi control, respectively. (n=3).
# Loss of FHIT and BMPR2 impaired PAECs tube formation 6 hours after cells were seeded in a Matrigel tube formation assay(12) compared to cells treated with control Ntsi (FIG. 9A, FIG. 9B).
# [8] = tested on: Caspase 3/7 in PAECs; assay: Caspase-Glo 3/7 apoptosis assay; format: cell-based, human
# Experimental: as §1, §4, §2
# [9] = tested on: FHIT−/− C57BL/6 mice in hypoxia; assay: Hypoxia-induced PH in Fhit−/− mice; format: in vivo, mouse
# Experimental: Experimental PAH will be assessed based on Right Ventricular (RV) Systolic Pressure measurements through right jugular vein catheterization and RV hypertrophy was assessed by the weight ratio of the RV to left ventricle+septum. Vessel loss and muscularization of lung vessels will be visualized by MOVAT pentachrome stain or IF staining with αSMA and avWF antibodies.
# as §3
# FIGS. 23B-23C, ΔΔCt analysis of mRNA expression in lung tissue.
# [10] = 3 weeks hypoxia, 5 mg/kg daily by mini-osmotic pump, C57BL/6 and BMPR2+/− mice
# [11] = 3 weeks hypoxia, 15 mg/kg/day by mini-osmotic pump, Bmpr2+/− and wildtype mice
# [12] = C57BL/6 FHIT−/− mice, 3 weeks hypoxia, 5 mg/kg daily by osmotic pump, method in future tense
# [13] = Fhit−/− mice, hypoxia, 5 mg/kg/day via mini osmotic pump
compound,measurement,setting,value
"Cn1cc(C2=C(c3cn(C4CCN(Cc5ccccn5)CC4)c4ccccc34)C(=O)NC2=O)c2ccccc21 [Enzastaurin, 3-(1-methyl-1H-indol-3-yl)-4-[1-[1-(pyridin-2-ylmethyl)piperidin-4-yl]-1H-indol-3-yl]-1H-pyrrole-2,5-dione]",siFHIT-mediated increase in miR17-5 expression,[1],inhibited
same,PKC activation as measured by its phosphorylation,[2],did not observe a significant decrease
same,PAEC proliferation (MTT),[3],no increase in PAEC proliferation was detected
same,siFHIT-mediated increase in miR27a expression,[4],inhibited
same,Increased PASMC proliferation induced by reductions in FHIT (MTT),[5],rescued
same,"Hypoxia-induced PH (changes in RVSP, RVH and pulmonary physiology)","[6]; 2-week treatment, 15 mg/kg/day, Bmpr2+/− and wild-type C57BL/6 mice",attenuated
same,Right ventricle systolic pressure (RVSP),"[6]; 3 weeks hypoxia, 5 mg/kg daily by mini-osmotic pump, vs hypoxia vehicle control",partial reduction
same,Full or partial muscularization of AW and AD vessels,[6]; [10],significantly ameliorated
same,Loss of alveolar wall (AW) and alveolar duct (AD) pulmonary vessels,[6]; [10],significantly ameliorated
same,Right ventricle (RV) hypertrophy (RV/LV+S),[6]; [10],substantial reduction
same,Muscularization of distal vessels,[6]; [11],prevented
same,RVH increase,[6]; [11],prevented
same,RVSP increase,[6]; [11],prevented
same,Vascular rarefaction,[6]; [11],prevented
same,Defects in tube formation,[7],fully reversed the defects in tube formation
same,Caspase 3/7-mediated apoptosis in synchronised PAECs,"[8]; 24 hours, 5 μM or 15 μM Enzastaurin, 5 μM Ly333531 hydrochloride",decreases
same,Caspase 3/7 luminescence (apoptosis) in siBMPR2 and siFHIT PAEC,"[8]; t=48 h post-transfection, 15 μM Enzastaurin",decreased
same,FHIT levels (FIG. 5C),[9]; [12],fails to increase FHIT levels
same,PKC levels (FIG. 5C),[9]; [12],effectively downregulating PKC levels
same,Pulmonary hypertension development (FIG. 5C),[9]; [12],does not protect from pulmonary hypertension development
same,BMPR2 expression in whole lung tissue,[9]; [13],increased
same,FHIT mRNA expression in lung tissue,[9]; [13],unmeasurably low
same,ID1 expression in whole lung tissue,[9]; [13],increased
same,PH,[9]; [13],improved PH
same,RVSP,"[9]; male FHIT−/− mice, 3 weeks hypoxia, 5 mg/kg by mini-osmotic pump, vs Sham control",protects from increased RVSP
